Results taken from patent US20250041286A1, “CANCER TREATMENT USING KETOTIFEN IN COMBINATION WITH A CHECKPOINT INHIBITOR” (Materia Therapeutics Inc., priority 2021, published 2025).
“Also recorded” adds a separate entry of the source.

What was measured:
tumors = test: Interstitial fluid pressure, wick-in-needle technique; assay type: in vivo, mouse
Description: Interstitial fluid pressure (IFP) was measured in vivo using the “wick-in-needle” technique after mice were anesthetized with i.p. injection of Avertin and prior to tumor excision. Additional information regarding the wick-in-needle technique is described in Dong et al., Involvement of mast cell chymase in burn wound healing in hamsters 2013; 5:643-7 and Shankaran et al. IFNγ and lymphocytes prevent primary tumour development and shape tumour immunogenicity 2001; 410:1107-11, the contents of which are incorporated herein by reference in their entirety.

MCA205 tumors [1] = test: Proliferation of CAFs, α-SMA / Ki-67 immunostaining; assay type: in vivo, mouse; details: 10 mg/kg ketotifen
Description: (§1) Proliferation of CAFs was evaluated by immunostaining for the presence of alpha-smooth muscle actin (α-SMA) (ab5694, Abcam; diluted 1:50) protein and Ki-67 (Abcam; diluted 1:200) proliferation marker following antigen retrieval, 1 hour incubation in serum solution (10% FBS, 3% donkey serum in 1×PBS), and 1 hour incubation in blocking solution for endogenous mouse IgG (Abcam; diluted 1:100). Following washes with TBS-T (0.25% Tween-20), Alexa Fluor-647 anti-rabbit IgG (H+L) (Invitrogen; diluted 1:400) and Fluor-488 anti-rat IgG (H+L) (Invitrogen; diluted 1:400) secondary antibodies and DAPR (Sigma diluted 1:100 of 1 mg/mL stock) were applied for 1 hour at room temperature. Sections were then mounted on microscope slides using the ProLong gold antifade mountant (Invitrogen) and covered with a glass coverslip. CAF proliferation fraction was detected as the ratio of overlapping α-SMA (green) and Ki67 (red) positive signal to total CAF signal (α-SMA^+), indicating CAFs.

K7M2wt tumors = test: as above; assay type: in vivo, mouse; details: 10 mg/kg ketotifen
Description: as §1

MCA205 cells = test: Re-challenge of long-term survivors with MCA205 cells; assay type: in vivo, mouse; details: re-challenge with 2.5×10^5 MCA205 cells s.c., 80 days after resection of primary tumors
Source text: Since doxorubicin has potential to establish favorable immunogenic conditions within the TME, which could affect the efficacy of immunotherapy, it was investigated if this immune response is preserved against rechallenge of long-term survivors with the same cell line. Mice were considered long-term survivors if no tumor was detected 80 days after surgical resection of MCA205 primary tumors. Five long-term survivors from each treatment group were further re-challenged with 2.5×10^5 MCA205 cells injected subcutaneously into the flank region. Cells were prepared in 50 μl of PBS. Naïve mice were implanted in parallel as controls.

NIH3T3 cells = test: Myofibroblast differentiation in co-culture, αSMA and collagen I immunofluorescence; assay type: cell-based, murine; details: co-culture with TGFβ and activated MCs
Description: Given that both MCs and fibroblasts are present in the TME, the consequences of MC activation on myofibroblasts was explored using a co-culture assay in which murine MC/9 MCs and NIH3T3 myofibroblasts were separated by a transwell chamber with micropores that only allowed chemical communication (FIG. 13A). In this system, degranulation efficiency was determined by measuring the concentration of β-hexosaminidase (β-hex) in the supernatant. MC degranulation was induced through exposure to compound 48/80 (C48/80), which binds to the MRGPRB2 receptor (the orthologue of the human G-protein-coupled receptor MRGPRX2). […] Co-cultures treated with a vehicle control and Triton X-100 were used as internal assay control to evaluate background and maximum β-hex release, respectively. Transforming growth factor (TGF)-β1 was used as a fibroblast activator due to its capacity to induce a myofibroblast phenotype of the NIH3T3 cells. MC/9 cells were cultivated with NIH3T3 cells for 24 hours and then treated with either ketotifen or TGFβ for additional 24 hours in low serum medium, followed by a 30 minute sensitization with C48/80.
To further explore the MC-fibroblast interaction, the differentiation process of NIH3T3 cells in the co-culture system was monitored by assaying levels of αSMA and collagen I, which are two markers of the myofibroblast phenotype, by immunofluorescence staining (FIG. 13C, FIG. 13D, and FIG. 13E).

MCA205 tumors [2] = test: qPCR mRNA expression levels in tumors; assay type: in vivo, mouse; details: 10 mg/kg ketotifen
Description: Total RNA was isolated from breast tumors according to the standard Trizol-based protocol (Invitrogen), and cDNA synthesis was performed using reverse transcriptase III (RT-III) enzyme and random hexamers (Invitrogen). Real-time polymerase chain reaction was performed using Sybr Fast Universal Master Mix (KAPA). Reactions were performed using a CFX-96 real-time PCR detection system (BioRad) at the following conditions: 95° C. for 2 minutes, 95° C. for 2 seconds, 60° C. for 20 seconds, 60° C. for 1 second, steps 2-4 for 39 cycles. Real-time PCR analysis and calculation of changes in gene expression between compared groups was performed using the ΔΔ^Ct method. Relative gene expression was normalized based on the expression of β-actin. For qPCR analysis, 3-5 biological samples were used per treatment and 3 technical replicates for each sample.
mRNA expression levels were evaluated in both mouse sarcoma models by qPCR, as described above.
RT-qPCR, as described above, […].

MCA205 tumors [3] = test: Hypoxia study, pimonidazole adduct immunofluorescence; assay type: in vivo, mouse
Description: Mice bearing orthotopic MCA205 or K7M2wt sarcoma tumors were injected (intraperitoneal) with 60 mg/kg of pimonidazole HCl at 2 hours prior to tumor removal. Tumors were removed, washed twice in 1×PBS for 10 minutes and incubated with 4% PFA overnight at 4° C. The fixative was aspirated, and samples were washed twice in 1×PBS for 10 min. Tissue samples were dehydrated in successive ethanol steps and xylene followed by paraffin embedding. Serial sections ([…]) of paraffin-embedded tissues were produced using the microtome (Accu-Cut SRM 200 Rotary Microtome, SAKURA), flattened out into water, and allowed to dry overnight at 37° C. Sections were then deparaffinized and rehydrated as routinely processed for histology. Slides were microwaved in TriSodium Citrate, blocked in serum solution, and incubated with mouse anti-pimonidazole RED 549 conjugate antibody (HP7-100Kit, 1:100) overnight at 4° C. The next day slides were washed, nuclei were stained with DAPI, and tissue sections were mounted. Immunofluorescence images of the slides were taken (FIG. 1A), and hypoxic area fraction across different treatment groups was normalized to DAPI staining.

CN1CCC(=C2c3ccccc3CC(=O)c3sccc32)CC1 [ketotifen]
interstitial fluid pressure (IFP) (tumors; 10 mg/kg dose compared with the other doses): greatest effect
interstitial fluid pressure (IFP) (tumors; all doses of ketotifen, daily for 7 days): reduces; also recorded: reduction in IFP levels
CAF levels and proliferation activity (α-SMA, Ki-67) (MCA205 tumors [1]): decrease
CAF levels and proliferation activity (α-SMA, Ki-67) (K7M2wt tumors): decrease
tumor development after re-challenge (mice out of five long-term survivors per group) (MCA205 cells): developed progressively growing tumors
myofibroblast differentiation (αSMA and collagen I protein expression) (NIH3T3 cells): impaired this myofibroblast differentiation
mRNA expression of ICAM (MCA205 tumors [2]): increased
mRNA expression of P-selectin (P-sel) (MCA205 tumors [2]): increased
mRNA levels of IFN-γ (MCA205 tumors [2]): upregulated; also recorded: upregulation
mRNA levels of VEGF (MCA205 tumors [2]): without affecting; also recorded: a reduction in VEGF transcripts was not observed
mRNA levels of collagen I encoding gene (Col1A1) (MCA205 tumors [2]): reduced the mRNA levels of collagen I encoding gene (Col1A1) and connective tissue growth factor (CTGR), although not to a statistically significant extent
mRNA levels of connective tissue growth factor (CTGR) (MCA205 tumors [2]): reduced the mRNA levels of collagen I encoding gene (Col1A1) and connective tissue growth factor (CTGR), although not to a statistically significant extent
mRNA levels of hyaluronan synthase 2 (Has2) (MCA205 tumors [2]): no effect
mRNA levels of hyaluronan synthase 3 (Has3) (MCA205 tumors [2]): no effect
pimonidazole positive fraction (hypoxia) (MCA205 tumors [3]; 1 mg/kg, 5 mg/kg and 25 mg/kg ketotifen): prominent
pimonidazole positive fraction (hypoxia) (MCA205 tumors [3]; 10 mg/kg ketotifen, MCA205): significantly reduced; also recorded: alleviated hypoxia
